# Measurements published in PubChem BioAssay AID2305 (GlaxoSmithKline (GSK), 2010).
# Tested on: P. falciparum 3D7 growth, pLDH absorbance
# Test: P. falciparum 3D7 growth inhibition, dose response, strain 3D7 (AID 2305)
row,Structure (SMILES),IC50
1,CCCOc1cccc(C(=O)N[C@@H](Cc2ccccc2)[C@H](O)CNCc2ccccc2OC)c1,880 nM
2,O=c1[nH]c(NCCCNCc2cc3c(Cl)cc(Cl)cc3[nH]2)nc2ccccc12,990 nM
3,CCC(CO)NCC(O)Cn1c2ccc(Cl)cc2c2cc(Cl)ccc21 (stereo not drawn),770 nM
4,CCCCCCc1cc(OC)c(OC)cc1C(C)Nc1ccnc2cc(Cl)ccc12 (stereo not drawn),490 nM
5,Nc1nc(NCC2CCC(CNS(=O)(=O)c3cccc4ccccc34)CC2)nc2ccccc12 (stereo not drawn),800 nM
6,O=C(/C=C/c1ccc(Cl)c(Cl)c1)NCCCCCN1CCCN(C(=O)Nc2cc(Cl)nc(Cl)c2)CC1,790 nM
7,N#Cc1c(F)cc(N2CCC(NCC[C@H](N)Cc3ccc(F)c(F)c3)CC2)cc1F,860 nM
8,O=C(/C=C/c1ccc(Cl)cc1)Nc1ccc2nc(CN3CCCC3)ccc2c1,80 nM
9,c1cc(CNC2CCCC2)cc(-c2ccc(CNc3ccc4ncccc4c3)cc2)c1,770 nM
10,Cc1noc(C)c1C(=O)N1CCCC(c2[nH]c3c(C)cccc3c2-c2ccncc2)C1 (stereo not drawn),840 nM
11,O=C(NCC1CCN(C/C=C/c2ccccc2)CC1)Nc1ccc(Oc2ccccc2)cc1,1040 nM
12,COc1ccc(NC(=O)c2ccc(Br)c(C)c2)cc1N1CCN(CCCc2c[nH]c3ccccc23)CC1,380 nM
13,CCN(CC)CCN(Cc1ccc(-c2ccc(C(F)(F)F)cc2)cc1)C(=O)Cn1c(CCc2cc(F)cc(F)c2F)nc(=O)c2ccccc21,760 nM
14,COc1ccc(NC(=O)/C=C/c2ccccc2Cl)cc1OCCN1CCC(O)(c2ccc(Cl)c(C(F)(F)F)c2)CC1,640 nM
15,COc1ccccc1CN1CCC(CNC(=O)c2cc(-c3cccc(C(F)(F)F)c3)cs2)C1 (stereo not drawn),1310 nM
16,C=C[C@]1(C)C[C@@H](OC(=O)c2n[nH]c3ccccc3c2=O)[C@]2(C)[C@H](C)CC[C@]3(CCC(=O)[C@H]32)[C@@H](C)[C@@H]1O,670 nM
17,COc1ccc(C=NNc2ccnc3cc(F)c(C)cc23)c2ccccc12,770 nM
18,CC(C(=O)N1CCCC1)N1CCN(S(=O)(=O)c2ccc(C(C)(C)C)cc2)CC1 (stereo not drawn),640 nM
19,Cc1cc(CNCCCCCNCc2cccc([N+](=O)[O-])c2)ccc1O,780 nM
20,c1cncc(CNc2ncc(-c3ccsc3)c(-c3nccs3)n2)c1,1380 nM
21,CCNc1cc(C(=O)N[C@@H](Cc2ccccc2)[C@H](O)CNCc2cc(OC)cc(OC)c2)cc(N2CCCC2=O)c1,740 nM
22,CCOc1ccc(N(CC)S(=O)(=O)c2cc(Br)cc3c2N(C(=O)C2CC2)CC3)cc1,130 nM
23,CCc1ccc(S(=O)(=O)Nc2cccc(CCN3CCC(N4CCCCC4)CC3)c2)cc1,900 nM
24,NC1CCCN(Cc2ccc(-c3ccc(-c4nc5ccc(F)cc5[nH]4)s3)cc2)C1 (stereo not drawn),180 nM
25,O=C(c1ccc(Cl)cc1Cl)N1CCCC(C(F)(F)F)C1 (stereo not drawn),950 nM

row,Structure (SMILES),IC50
1,CCOc1ccc(-c2nonc2NC(=O)c2ccc(F)cc2)cc1OCC,330 nM
2,CCCCN(CCCC)C(=NCCCCCCN=C(NC(N)=NCc1ccc(Cl)c(Cl)c1)N(CCCC)CCCC)NC(N)=NCc1ccc(Cl)c(Cl)c1,400 nM
3,CCOC(C(=O)OCCN(C(C)C)C(C)C)(c1ccccc1)c1ccccc1,870 nM
4,CCCN(CCC)S(=O)(=O)c1ccc(C(=O)Nc2nc3ccc(-c4cc(=O)[nH]c(Nc5ccccc5Cl)n4)cc3[nH]2)cc1,590 nM
5,Cc1cc(NC2CCN(CC3CCCCC3)C2)nc(Nc2ccc(Br)cc2)n1 (stereo not drawn),570 nM
6,Oc1cccc(CNCCCN(Cc2ccccc2)c2ccccc2)c1,600 nM
7,O=C(NCc1ccc(C(F)(F)F)cc1)c1cccc(-c2nnc(-c3cccc(-c4cncnc4)c3)o2)c1,540 nM
8,O=S(=O)(c1cccc2cccnc12)N1CCN(C2CCCCC2)CC1,760 nM
9,Cc1cccc2[nH]c(-c3cccc(-c4cccc(NC(=O)Nc5ccccc5)c4)c3)nc12,140 nM
10,CCOc1cc(C(=O)NC2CC(C)(C)N(C)C(C)(C)C2)ccc1-c1nc2cc(Cl)c(Cl)cc2[nH]1,860 nM
11,COc1ccc2c(NN=Cc3ccccc3)cc(C)nc2c1,850 nM
12,NC1=NCN(OCc2ccc(Cl)c(Cl)c2)C(N)=N1,190 nM
13,Cc1nc(-c2nc(NCc3ccccn3)ncc2-c2ccsc2)sc1C,560 nM
14,CCOC(=O)c1ccc(-c2c(C(F)(F)F)noc2-c2cc(CC)c(OC)cc2O)o1,210 nM
15,C[C@@H]1CC[C@H](NC(=O)[C@H](CC2CCCC2)NC(=O)N2CCNCC2)C(=O)CN1S(=O)(=O)c1ccccn1,890 nM
16,CN=C(N)c1ccc(NC(=O)C=Cc2ccc(C(=O)Nc3ccc(C(N)=NC)cc3)cc2)cc1,30 nM
17,CCn1c(-c2nonc2N)nc2c(-c3ccc(CO)o3)ncc(OCCCN)c21,1360 nM
18,N#Cc1ccc2c(c1)CN(C1CCC(NC(=O)C3=Cc4cc(Cl)ccc4OC3)CC1)CCC2 (stereo not drawn),1330 nM
19,CCN(CC)Cc1ccc2c(=O)cc(CCc3cccc(F)c3F)n(CC(=O)N(Cc3ccc(-c4ccc(C(F)(F)F)cc4)cc3)C(C)C)c2c1,780 nM
20,CN1CCCC(CN2CCN(Cc3cccc(-c4ccc(-c5nc6ccccc6[nH]5)s4)c3)CC2)C1 (stereo not drawn),150 nM
21,CC(=NN=C(N)N)c1ccc2ccc3ccccc3c2c1,890 nM
22,CN(C)CC(=O)N(Cc1ccc(Cl)c(Cl)c1)Cc1csc(-c2ccc(CNCc3ccccc3)cc2)n1,1050 nM
23,COc1ccc2nccc([C@@H](O)CN3CCC(NS(=O)(=O)c4cc5c(cc4Cl)SCC(=O)N5)CC3)c2c1,980 nM
24,Oc1ccccc1CN1CCCC(COC(c2ccc(F)cc2)c2ccc(F)cc2)C1 (stereo not drawn),780 nM
25,CCCC(CNCc1cccc(OC(F)(F)F)c1)CNc1cc(=O)c2ccccc2[nH]1 (stereo not drawn),560 nM

row,Structure (SMILES),IC50
1,NC(=O)CN1CC=C(c2c[nH]c3ccc(Br)cc23)CC1,1100 nM
2,Nc1nc(N)c2cc(Cc3ccccc3Cl)cnc2n1,110 nM
3,CCOc1cc(CC)ccc1C1CCN(CCN2CCC(CNC(=O)c3ccc(-c4ccc(C#N)cc4)cc3)CC2)CC1,710 nM
4,Cc1ccccc1Nc1nc(NCCCO)c2ccccc2n1,410 nM
5,CN(C)CCN(C)Cc1ccc(-c2ccc3c(Nc4ccc(Oc5ccccn5)cc4)ccnc3c2)o1,420 nM
6,O=[N+]([O-])c1ccc(N2CCCN(C(=S)Nc3ccc(F)cc3Br)CC2)nc1,300 nM
7,Cc1cc(OCCCN2CCC(NS(=O)(=O)c3cccc(Br)c3)C2)c2ccccc2n1 (stereo not drawn),1210 nM
8,CC(C)NC(=O)c1cccc(-c2cccc(OCCN3CCSCC3c3ccccc3)c2)c1 (stereo not drawn),1010 nM
9,CC(C)CCOc1ccc(NC(=O)c2cccs2)cc1,510 nM
10,COc1cc(C=CC(=O)N2CCC(CCN3CCC(c4c[nH]c5ccccc45)CC3)CC2)cc(OC)c1,910 nM
11,CC[C@H]1CN2CC[C@@H]1C[C@H]2[C@H](O)c1cc(-c2cccnc2)nc2ccc(OC)cc12,40 nM
12,S=C(NCCCCCN1CCC(c2c[nH]c3ccccc23)CC1)Nc1cc(Cl)cc(Cl)c1,870 nM
13,Oc1ccc2[nH]cc(C3CCN(CCCNCc4ccc(-c5ccccc5)cc4)CC3)c2c1,720 nM
14,O=[N+]([O-])c1ccccc1C=NNc1c2c(nc3ccccc13)CCCC2,310 nM
15,Cc1c(-c2cccc(CNCCc3ccc(Cl)cc3)c2)cnc(N)c1C,1040 nM
16,COc1ccc(NC(=O)c2ccc(NC(=O)c3ccc(Cl)cc3)cc2)cc1N1CCN(C)CC1,850 nM
17,COc1ccc(CNCc2cccc(-c3cccc(-c4nc5ccc(C(F)(F)F)cc5[nH]4)c3)c2)cc1,200 nM
18,Fc1ccc2nc(-c3ccc(-c4ccc(CN5CCCCC5)cc4)cc3)[nH]c2c1,350 nM
19,Cc1cc(N(C)C)nc(Nc2ccc(NS(=O)(=O)c3ccccc3)cc2)n1,1350 nM
20,CCN(CC)CCN(Cc1ccc(-c2ccc(C#N)cc2)cc1)C(=O)Cn1c(CCc2cccc(F)c2F)nc(=O)c2ccccc21,10 nM
21,O=C(/C=C/c1ccc(Cl)c(Cl)c1)NCCC1CCC(N2CCC(c3c[nH]c4ccccc34)CC2)CC1 (stereo not drawn),200 nM
22,CCCCCCC(CC)c1cc(O)c2c(c1)OC(C)(C)c1ccncc1-2 (stereo not drawn),810 nM
23,c1cc(CN2CCN(c3ccncc3)CC2)cc(-c2ccc(-c3nc4ccccc4[nH]3)s2)c1,150 nM
24,COc1ccc(NC(=O)Nc2ccc(Nc3nc(C)cc(N(C)C)n3)cc2)cc1,450 nM
25,CCCN1CCN(c2ccccc2NS(=O)(=O)c2ccc(C(=O)Nc3ccc(Cl)cc3)cc2)CC1,1140 nM

row,Structure (SMILES),IC50
1,CCn1c2ccccc2c2cc(C=NNc3cc(C)nc4ccccc34)ccc21,310 nM
2,COc1c(F)ccc2ncc(Cl)c(CCN3CCC(NCc4ccc5c(n4)NC(=O)CS5)CC3)c12,540 nM
3,CCCN(CC)CCOC(=O)c1ccccc1,740 nM
4,CS(=O)(=O)c1ccc(OCCCN(Cc2ccccc2C(F)(F)F)c2ccc(C#N)c(C(F)(F)F)c2)cc1,1020 nM
5,Brc1cc2c(cc1C=NNc1nc(Nc3ccccc3)nc(Nc3ccccc3)n1)OCO2,800 nM
6,Cc1[nH]c(C)c(-c2ccc(Nc3ccc(C(F)(F)F)cn3)cc2)c(=O)c1Br,30 nM
7,CCC(CC)(Cc1ccccc1)NC(=O)[C@H](CC(C)C)Nc1ccc(C#N)c2ccccc12,910 nM
8,Cc1cc(N2CCCN(C)CC2)nc(Nc2ccc(Cl)cc2)n1,800 nM
9,c1ccc(C(c2ccccc2)N2CCC(NCc3ccc(OCCCN4CCCCC4)cc3)CC2)cc1,560 nM
10,Nc1nc2c(ncn2OC[C@H]2COP(=O)(O)CO2)c(=O)[nH]1,570 nM
11,COc1ccc2nccc([C@@H](O)CN3CCC(NCCOc4ccc(F)cc4Cl)CC3)c2c1,280 nM
12,COc1ccccc1N1CCN(c2cccc3c2nc(-c2cncc(C#N)c2)n3CCNCc2ccccc2)CC1,710 nM
13,CC1CN(Cc2ccccc2)CCN1c1ccc(NC(=O)c2cccs2)cc1 (stereo not drawn),280 nM
14,Cc1noc(=O)c2ccc(NC(=O)C(O)(CSc3ccccc3)CC(C)C)cc12 (stereo not drawn),720 nM
15,COCCNCc1ncsc1-c1ccc2c(Nc3cc(O)ccc3C)ccnc2c1,700 nM
16,NC(=O)c1ccsc1NC(=O)CNC(c1ccccc1)c1ccc(Cl)cc1 (stereo not drawn),260 nM
17,CN(C)CCCOc1ccc(CN2CC[C@H](NC(=O)c3ccc(Cl)c(Cl)c3)C2)cc1Br,760 nM
18,CN(C)c1c(CNCCCCCCNCc2ccc3ccccc3c2N(C)C)ccc2ccccc12,460 nM
19,O=C(/C=C/c1ccc(Cl)c(Cl)c1)NCCCCCN1CCC(C(=O)Nc2ccc(F)c(Cl)c2)CC1,650 nM
20,CC(=O)C1(c2ccccc2)CCN(CCC2(c3ccc(Cl)c(Cl)c3)CN(C(=O)CC(C)C)CCO2)CC1 (stereo not drawn),640 nM
21,Nc1cc(-c2cc3c(OCc4ccccc4)cccc3[nH]2)ccn1,1190 nM
22,O=C(NCCSCc1c(F)cccc1Cl)c1cnc2c(c1)nc(-c1cnc(-c3ccccc3)[nH]1)n2CCc1cnc[nH]1,810 nM
23,Cc1[nH]c2ccccc2c1C1=CCN(CCN2CCOc3c(Br)cccc3C2=O)CC1,800 nM
